Results on 6 compounds are retold here after patent US10375956B2, “Herbicidally active 2-(substituted-phenyl)-cyclopentane-1,3-dione compounds and derivatives thereof” (Syngenta Limited, priority 2013, dated 2019).

Like-named read-outs stand apart in the source and are kept apart here.

Format in all cases: in vivo
For experiment [1], the system named is Brachiaria plantaginea (BRAPL). As to the kind of experiment: Test 2 glasshouse assay (IF50 formulation, X-77), pre-emergence herbicidal activity. Particulars: Urochloa plantaginea, 480 h, 250 g/ha, 20DAA, read-out: Percentage phytotoxicity BRAPL. How it is done: (§1) Seeds of a variety of monocotyledonous and dicotyledonous test plants are sown in standard soil in pots. The plants are cultivated for one day (for pre-emergence) or for about 12 days (for post-emergence) under controlled conditions in a glasshouse (warm climate species at 24/18° C., cool climate species at 20/16° C., both at day/night; 16 hours light; 65% humidity).
(§2) An “instant formulation”, known as the “IF50”, containing 50 g/liter (i.e. 5% w/v) of the “technical” (i.e. unformulated) active ingredient is prepared by dissolving the active ingredient in a mixture of organic solvents and emulsifier, details of which are provided in the Table below. This IF50 is then mixed with a small, variable amount of acetone to aid dissolution, before addition of a 0.2% v/v aqueous solution of the adjuvant X-77 (which is a mixture of alkyl aryl polyoxyethylene glycols and free fatty acids in isopropanol, CAS Registry number 11097-66-8), as the aqueous diluent, to form an aqueous spray solution which contains a predetermined concentration of the active ingredient (which varies depending on the application rate of the active ingredient to the plants) and 0.2% v/v of the adjuvant X-77. This aqueous spray solution is then sprayed onto the plants, after one day's cultivation (for pre-emergence), or after about 12 days' cultivation (range=10-13 days) (for post-emergence).
(§3) The test plants are then grown on, in a glasshouse (greenhouse) under controlled conditions (warm climate species at 24/18° C., cool climate species at 20/16° C., both at day/night; 16 hours light; 65% humidity) and are watered twice daily. 15 days after application of the test herbicide (15DAA) (for post-emergence), and 20 days after application of the test herbicide (20DAA) (for pre-emergence), the test plants are evaluated visually, and an assessed percentage phytotoxicity score is given for each herbicidal application on each plant species (with 100%=total damage to plant; 0%=no damage to plant).
(§4) Warm climate (“warm season”) grassy monocotyledonous weeds: Setaria faberi (SETFA), Panicum miliaceum (PANMI), Sorghum vulgare Pers. (SORVU) (or Sorghum bicolor (L) Moench ssp. Bicolor), Digitaria sanguinalis (DIGSA), Echinochloa crus-galli (ECHCG), and Brachiaria plantaginea (BRAPL).

The subject of experiment [2] is Digitaria sanguinalis (DIGSA). The experiment is described as above. The conditions noted are these: 480 h, 250 g/ha, 20DAA, read-out: Percentage phytotoxicity DIGSA. How it is done: as §1, §2, §3, §4
In experiment [3] the test system is Echinochloa crus-galli (ECHCG). The description is as above. Particulars: 480 h, 250 g/ha, 20DAA, read-out: Percentage phytotoxicity ECHCG. How it is done: as §1, §2, §3, §4
Experiment [4] has as its system Sorghum vulgare Pers. (SORVU). The experiment is described as above. Particulars: Sorghum bicolor, 480 h, 250 g/ha, 20DAA, read-out: Percentage phytotoxicity SORVU. On the procedure:
as §1, §2, §3, §4

Another experiment concerns Setaria faberi (SETFA). The description is as above. The conditions noted are these: 480 h, 250 g/ha, 20DAA, read-out: Percentage phytotoxicity SETFA. How it is done:
as §1, §2, §3, §4

The subject of experiment [5] is Panicum miliaceum (PANMI). Described as above. Particulars: 480 h, 250 g/ha, 20DAA, read-out: Percentage phytotoxicity PANMI. On the procedure: as §1, §2, §3, §4
Experiment [6] has as its system Alopecurus myosuroides (ALOMY). As to the kind of experiment: Test 1 glasshouse assay, pre-emergence herbicidal activity. Particulars: 312 h, visual evaluation after 13 days, read-out: Percentage phytotoxicity ALOMY. The method, boiled down:
(§5)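 Glasshouse test on soil-sown seed at 24/16° C day/night and 65% humidity. Application was a spray one day post-sowing, vehicle acetone/water (50:50) with 0.5% Tween 20. Readout: visual phytotoxicity percentage at day 13.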

Experiment [7] concerns Abutilon theophrasti (ABUTH). Described as above. The conditions noted are these: 312 h, visual evaluation after 13 days, read-out: Percentage phytotoxicity ABUTH. The method, boiled down: as §5
Experiment [8] deals with Echinochloa crus-galli (ECHCG). Described as above. The conditions noted are these: 312 h, visual evaluation after 13 days, read-out: Percentage phytotoxicity ECHCG. Put shortly:
as §5

Experiment [9] concerns Amaranthus retroflexus (AMARE). The description is as above. Particulars: 312 h, visual evaluation after 13 days, read-out: Percentage phytotoxicity AMARE. The method, boiled down: as §5
For experiment [10], the system named is Alopecurus myosuroides (ALOMY). As to the kind of experiment: Test 1 glasshouse assay, post-emergence herbicidal activity. The conditions noted are these: 312 h, after 13 days, read-out: Percentage phytotoxicity ALOMY. Put shortly: (§6)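 Plants sprayed 8 days after sowing with active ingredient in acetone/water (50:50) containing 0.5% Tween 20, grown in glasshouse at 24/16°C day/night, 14 h light, 65% humidity. Phytotoxicity scored visually after 13 days as percentage damage (100% = total damage; 0% = none).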

The subject of experiment [11] is Echinochloa crus-galli (ECHCG). The experiment is described as above. The conditions noted are these: 312 h, after 13 days, read-out: Percentage phytotoxicity ECHCG. Put shortly:
as §6

The subject of the next experiment is Lolium perenne (LOLPE). Put plainly: Test 2 glasshouse assay (IF50 formulation, X-77), pre-emergence herbicidal activity. The conditions noted are these: 480 h, 250 g/ha, 20DAA, read-out: Percentage phytotoxicity LOLPE. How it is done: as §1, §2, §3
Cool climate (“cool season”) grassy monocotyledonous weeds: Alopecurus myosuroides (ALOMY), Avena fatua (AVEFA), Lolium perenne (LOLPE).

The mark [12] stands for this setting: post-emergence (Example 1B Table 1).
Where [13] appears, read: post-emergence (Example 1B Table 2).

Turning to `C#CCC1CC(=O)C(c2c(C)cc(-c3ccc(Cl)cn3)cc2C)C1=O` (stereo not shown) [Compound A2], the pest or weed control at 250 g/ha in [1] was 80%; in [2], 70%; in experiment [3], 80%; in experiment [4], 80%; with Setaria faberi (SETFA) it was 90%; in experiment [5], 100%. In addition, the pest or weed control at 250 g/ha in experiment [6] was 90%; in [7], 50%; in experiment [8], 100%; in experiment [9], 90%; in [10] (setting [12]), 90%; in experiment [10] (setting [13]) it was 100%. In addition, the pest or weed control at 250 g/ha came to 100% in [11] (setting [12]), 100% in experiment [11] (setting [13]) and 80% in the experiment with Lolium perenne (LOLPE). Moreover, the pest or weed control at 62.5 g/ha in experiment [10] (setting [12]) is 90%; in [10] (setting [13]) it was 70%; in experiment [11] (setting [12]), 100%; in [11] (setting [13]), 90%.

As to `C#CCC1CC(=O)C(c2c(C)cc(-c3ncc(Cl)cc3F)cc2C)C1=O` (stereo not shown) [Compound A3], the pest or weed control at 250 g/ha stood at 90% in experiment [1]; 90% in experiment [2]; 80% in [3]; 80% in experiment [4]; 80% with Setaria faberi (SETFA); 80% in experiment [5]. The pest or weed control at 250 g/ha came out at 100% in experiment [6]; 20% in experiment [7]; 100% in experiment [8]; 60% in experiment [9]; 100% in experiment [10] (setting [12]); 100% in experiment [10] (setting [13]). Also, the pest or weed control at 250 g/ha in experiment [11] (setting [12]) is 100%; in [11] (setting [13]), 100%; in the experiment with Lolium perenne (LOLPE), 80%. In addition, the pest or weed control at 62.5 g/ha in experiment [10] (setting [12]), in experiment [10] (setting [13]), in [11] (setting [12]) and in [11] (setting [13]) was 100% each time.

`C#CCC1CC(=O)C(c2c(Cl)cc(-c3ccc(F)cc3)cc2OC)C1=O` (stereo not shown) [Compound A7]: the pest or weed control at 250 g/ha in experiment [1] amounted to 90%; in experiment [2] it was 100%; in [3], 90%; in experiment [4] it was 90%; with Setaria faberi (SETFA) it was 90%; in experiment [5], 100%. The pest or weed control at 250 g/ha in [6] was found to be 90%; in experiment [7], 0%; in experiment [8] it was 100%; in [9], 70%; in experiment [10] (setting [12]), 100%; in experiment [11] (setting [12]), 100%. For the same compound, the pest or weed control at 250 g/ha with Lolium perenne (LOLPE) came out at 60%. Also, the pest or weed control at 30 g/ha came to 70% in [10] (setting [12]) and 100% in [11] (setting [12]).

With `C#CCC1CC(=O)C(c2c(Cl)cc(-c3ccc(Cl)cc3)cc2OC)C1=O` (stereo not shown) [Compound A11, 2-[2-chloro-4-(4-chlorophenyl)-6-methoxyphenyl]-4-prop-2-ynylcyclopentane-1,3-dione], the pest or weed control at 250 g/ha in experiment [1] turned out to be 100%; in [2], 90%; in experiment [3], 70%; in experiment [4], 80%; with Setaria faberi (SETFA), 90%; in experiment [5], 60%. Moreover, the pest or weed control at 250 g/ha in experiment [6] is 100%; in experiment [7], 40%; in experiment [8], 100%; in experiment [9], 80%; in experiment [10] (setting [12]), 100%; in experiment [11] (setting [12]), 100%. Also, in the experiment on Lolium perenne (LOLPE), the pest or weed control at 250 g/ha amounted to 60%. The pest or weed control at 30 g/ha in [10] (setting [12]) is 70%; in experiment [11] (setting [12]), 100%.

As for `C#CCC1CC(=O)C(c2c(Cl)cc(-c3ccc(F)cc3F)cc2OC)C1=O` (stereo not shown) [Compound A12], the pest or weed control at 250 g/ha worked out at 100% in experiment [1]; 100% in experiment [2]; 80% in experiment [3]; 90% in experiment [4]; 100% with Setaria faberi (SETFA); 100% in [5]. In addition, the pest or weed control at 250 g/ha stood at 90% in experiment [6]; 80% in experiment [7]; 100% in experiment [8]; 100% in experiment [9]; 100% in experiment [10] (setting [12]); 100% in experiment [10] (setting [13]). Also, the pest or weed control at 250 g/ha (in experiment [11] (setting [12]); in [11] (setting [13]); in the experiment on Lolium perenne (LOLPE)) was 100% throughout. The pest or weed control at 30 g/ha in experiment [10] (setting [12]) came out at 80%; in [11] (setting [12]), 100%. Moreover, the pest or weed control at 62.5 g/ha in [10] (setting [13]) turned out to be 60%; in [11] (setting [13]) it was 100%.

As for `C#CCC1CC(=O)C(c2c(Cl)cc(-c3ccc(F)c(F)c3)cc2OC)C1=O` (stereo not shown) [Compound A13], the pest or weed control at 250 g/ha (in experiment [1]; in experiment [2]; in [3]; in [4]; in the experiment with Setaria faberi (SETFA); in experiment [5]) was 100% each time. Further, the pest or weed control at 250 g/ha in [6] was 90%; in experiment [7], 80%; in [8] it was 100%; in experiment [9], 100%; in experiment [10] (setting [12]), 100%; in experiment [10] (setting [13]), 100%. Besides, the pest or weed control at 250 g/ha (in [11] (setting [12]); in experiment [11] (setting [13]); in the experiment on Lolium perenne (LOLPE)) was 100% throughout. For the same compound, the pest or weed control at 30 g/ha stood at 90% in experiment [10] (setting [12]) and 100% in experiment [11] (setting [12]). The pest or weed control at 62.5 g/ha in experiment [10] (setting [13]) and in [11] (setting [13]) was 100% each time.
